Measurements as given in patent US8975234B2, “Anti-bacterial infection, inflammation, and leukemia composition and use thereof” (priority 2011, dated 2015).

How the values were obtained:
DPPH scavenging assay = experiment: DPPH scavenging assay
Description: Test reagents, natural extracts and Vitamin C (ascorbic acid) were dissolved in methanol to make a stock solution 10×. Vitamin C was used as the positive control. 120 μM DPPH solution was prepared. Taken 20 μL of stock reagents, natural extracts and Vitamin C on a 96-well microplate, and methanol was added to make up to the total volume of 100 μL. Control was 100 μL methanol. Each sample was mixed with 100 μL DPPH solution and incubated in the dark for 40 minutes. DPPH level of each well was evaluated by detecting the optical density of each well at 517 nm and the results were shown in Table 5.

[1] = system: penicillin-binding protein 2a (PBP2a); experiment: Western blotting analysis of PBP2a expression; type: cell-based, Staphylococcus aureus; settings: 40 μg/mL alone
Description: Protein samples (15 μg) were mixed with 5× Sample buffer and boiled in 1× Sample buffer for 5 min and then cooled quickly that proteins be denatured to their constituent polypeptide chains. Equal amounts of protein (15 μg) were separated on 10% SDS-PAGE at 17 mA for 2 hours, and transferred to PVDF membrane using wet transfer procedure. The PVDF membrane was blocked for half hour at room temperature in t-BST buffer containing 5% (w/v) non-fat dry milk to prevent nonspecific binding then probed with primary antibodies (Rabbit-anti-penicillin binding protein, dilution 1:5000) in 5% non-fat dry milk for 16˜18 hours at 4° C. Anti-Groel was used as internal controls (dilution 1:80,000; purchased from Sigma). After washing with t-BST three times for 5 minutes each, the membrane was incubated for half hour at room temperature with horseradish peroxidase (HRP)-conjugated secondary antibodies in 5% (w/v) non-fat dry milk. The membrane was washed three times for 5 minutes each, followed by using an enhanced chemiluminescence system and exposed to film.

O=C(OC1O[C@@H]2COC(=O)c3cc(O)c(O)c(O)c3-c3c(cc(O)c(O)c3O)C(=O)O[C@H]2[C@H](OC(=O)c2cc(O)c(O)c(O)c2)[C@H]1OC(=O)c1cc(O)c(O)c(O)c1)c1cc(O)c(O)c(O)c1 (some centres unmarked) [Tellimagrandin II]
DPPH free-radical scavenging activity (DPPH scavenging assay; 20 μg/mL, +FeCl2 (50 μM)): 56.61 ± 4.05%
DPPH free-radical scavenging activity (DPPH scavenging assay; 20 μg/mL, −FeCl2): 80.52 ± 0.4%
DPPH free-radical scavenging activity (DPPH scavenging assay; 40 μg/mL, +FeCl2 (50 μM)): 57.43 ± 2.49%
DPPH free-radical scavenging activity (DPPH scavenging assay; 40 μg/mL, −FeCl2): 79.47 ± 0.2%
expression of penicillin-binding protein 2a (PBP2a) [1]: inhibit the expression
